Laboratory results from article PMC5146284, “Molecular imaging with engineered physiology” (Nature Communications, 2016).
Read-outs that look alike come from different tables or passages of the source. One block for each compound: values may come before it.

Experiments:
[1] = test system: rat brain (thalamus); nNOS; assay: MRI of CGRP response before and after systemic nNOS inhibition with L-NAME; type: in vivo, rat (Sprague-Dawley)
[2] = test system: rat brain (thalamus); assay: MRI of haemodynamic response to intracranial CGRP infusion; type: in vivo, rat (Sprague-Dawley); details: inferred from MRI time course during intracranial infusion
Source text: Haemodynamic contrast provided sufficient resolution to monitor convective spread of the imaging agent from the site of infusion (Supplementary Fig. 1b).
Magnetic resonance imaging
Nineteen Sprague-Dawley rats were used for in vivo MRI experiments. […]
Animals were scanned by MRI to measure the changes in haemodynamic contrast following intracranial injections. […] Breathing rate and end-tidal expired isoflurane were continuously monitored. […]
Signals were averaged over six animals in 1.5 mm square regions of interest (ROIs) positioned around the infusion cannulae tips in each animal (cf. Fig. 2d); gray shading denotes standard errors as a function of time. (b) Time courses from multiple approximately concentric ROIs (diagrammed at left) were analyzed to determine whether hemodynamic MRI has sufficient spatial resolution to monitor convection of CGRP from the infusion site. For each ROI, the delay between the start of infusion and the ob-servation of statistically significant signal changes from baseline was measured (color coded bars at right). […]

[3] = target: T1, RAMP1/CLR CGRP receptor heterodimer in HEK293FT reporter cells (Homo sapiens, UniProt O60894+Q16602); assay: Luminescent cAMP (GloSensor) cell-based bioassay for CGRP receptor activation; details: comparison of sensors
T1 construct: HA-CALCRL: Human calcitonin receptor-like receptor preceded by the H. influenza; Human receptor-activity modifying protein 1 preceded by the H. influenza; hemagglutinin signal peptide (heterologous, replaces the native one) (N); expressed in transfected cells

[4] = test system: caspase-3 (CASP3); assay: Proteolytic cleavage by caspase-3 (SDS-PAGE or MALDI); type: biochemical, human; details: 10 µM sensor, 2 h, 37 °C; SDS-PAGE (sensor 4) or MALDI (sensor 5)
Procedure: (§1) Proteolytic cleavage reactions
(§2) Supplementary Fig. 4. Proteolytic cleavage of candidate sensors and assessment by bioas-say. (a-e) Cleavage reaction products after incubation of 10 µM sensor with or without enzyme for 2 h at 37 °C. (a) MALDI mass spectrum of sensor (1) after incubation with or without FAP […]
(§3) (b) SDS-PAGE analysis of sensor
(§4) (c) SDS-PAGE analysis of sensor (3) after incubation with different concentrations of EK light […]
(§5) (d) SDS-PAGE analysis of sen- […]
(§6) and liberation of free CGRP. (f-k) Dose-response curves of uncleaved and cleaved sensors in […]
(§7) (f) Dose-response curves for Sensors (2-4) at final assay concentrations up to 10 uM (addition of 10 µL of 100 µM solution to 90 µL medium per well in bioassay) show no receptor activation by uncleaved GFP-linker-CGRP-G sensors even at 10-fold higher concentrations than were used in cleavage assays (g-k). (g-k) Dose-response curves for reaction products from (a-e). Error bars in (f-k) denote SD of measurements performed in triplicate.
(§8) (1 picture or pasted object on this page, not shown here)

[5] = test system: CASP3, in rat brain (thalamus); details: for significant haemodynamic activation / voxel correlation with vs without CASP3: 100 nM sensor, BOLD MRI
[6] = test system: enterokinase (EK) light chain; assay: Proteolytic cleavage by enterokinase light chain (SDS-PAGE); type: biochemical; details: 10 µM sensor, 2 h, 37 °C, different EK concentrations
Procedure: as §1, §2, §3, §4, §5, §6, §7, §8

[7] = test system: TEV protease; assay: Proteolytic cleavage by TEV protease (SDS-PAGE); type: biochemical; details: 10 µM sensor, 2 h, 37 °C
Procedure: as §1, §2, §3, §4, §5, §6, §7, §8

T1 sequence (Q16602 23-461): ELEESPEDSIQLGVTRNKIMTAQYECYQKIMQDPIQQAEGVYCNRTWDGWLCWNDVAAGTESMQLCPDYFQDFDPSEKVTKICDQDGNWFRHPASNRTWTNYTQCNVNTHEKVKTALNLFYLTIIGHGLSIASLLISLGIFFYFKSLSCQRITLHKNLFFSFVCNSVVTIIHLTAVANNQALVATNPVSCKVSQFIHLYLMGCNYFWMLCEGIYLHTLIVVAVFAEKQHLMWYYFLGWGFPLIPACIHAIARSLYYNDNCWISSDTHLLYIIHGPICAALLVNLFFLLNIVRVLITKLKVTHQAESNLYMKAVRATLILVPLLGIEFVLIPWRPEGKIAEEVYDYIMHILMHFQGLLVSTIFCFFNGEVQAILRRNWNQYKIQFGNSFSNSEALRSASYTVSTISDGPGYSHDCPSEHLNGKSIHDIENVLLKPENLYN
T1 sequence (O60894 27-148): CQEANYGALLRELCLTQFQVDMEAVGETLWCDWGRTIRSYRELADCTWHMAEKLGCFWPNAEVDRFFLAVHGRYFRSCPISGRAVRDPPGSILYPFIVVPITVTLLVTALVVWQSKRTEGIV

Compound: COC(=O)[C@@H](N)CCCNC(N)=N[N+](=O)[O-] [L-NAME, N-nitro-L-arginine methyl ester]
- average increase in baseline brain MRI signal before CGRP infusion ([1]; 50 mg/kg i.v., t-test P=0.11, n=4, not significant): 3.5±2.3%
- increase in baseline MRI signal after L-NAME (review reply) ([1]; during first five minutes after L-NAME injection, n=4): < 5%

Compound: CC(C)C[C@H](NC(=O)CNC(=O)[C@H](C)NC(=O)[C@H](CC(C)C)NC(=O)[C@H](CCCNC(=N)N)NC(=O)[C@H](Cc1cnc[nH]1)NC(=O)[C@@H](NC(=O)[C@@H](NC(=O)[C@@H]1CSSC[C@H](NC(=O)[C@H](C)N)C(=O)N[C@@H](CC(=O)O)C(=O)N[C@@H]([C@@H](C)O)C(=O)N[C@@H](C)C(=O)N[C@@H]([C@@H](C)O)C(=O)N1)C(C)C)[C@@H](C)O)C(=O)N[C@@H](CC(C)C)C(=O)N[C@@H](CO)C(=O)N[C@@H](CCCNC(=N)N)C(=O)N[C@@H](CO)C(=O)NCC(=O)NCC(=O)N[C@H](C(=O)N[C@H](C(=O)N[C@@H](CCCCN)C(=O)N[C@@H](CC(N)=O)C(=O)N[C@@H](CC(N)=O)C(=O)N[C@@H](Cc1ccccc1)C(=O)N[C@H](C(=O)N1CCC[C@H]1C(=O)N[C@H](C(=O)N[C@@H](CC(N)=O)C(=O)N[C@H](C(=O)NCC(=O)N[C@@H](CO)C(=O)N[C@@H](CCCCN)C(=O)N[C@@H](C)C(=O)N[C@@H](Cc1ccccc1)C(N)=O)C(C)C)[C@@H](C)O)C(C)C)C(C)C)C(C)C [wtCGRP, calcitonin gene-related peptide]
- removal or degradation in brain tissue [2]: not rapidly removed or degraded in brain tissue

Compound: (long-chain biotin)-SG-DEVD-CGRP-amide (disulfide) [Sensor (5)]
- protease sensitivity and post-cleavage potency, ranking [3]: optimum protease sensitivity and post-cleavage potency
- cleavage by caspase-3 [4]: complete cleavage
- peak MRI signal change in the absence of CASP3 ([5]; 100 nM sensor alone, 0.1 μl/min, 10 min, n=4): 1.6±0.5%
- mean MRI peak signal change, sensor/CASP3 co-injection ([5]; 100 nM sensor with CASP3, 0.1 μl/min, 10 min, n=4, P=0.02): 7.0±0.9%
- significant haemodynamic activation / voxel correlation with vs without CASP3 ([5]; corrected t-test P<0.05, listed as CASP3 sensor): observed in the presence but not the absence of the co-injected protease
- significant haemodynamic activation / voxel correlation with vs without CASP3 ([5]; corrected t-test P<0.05, listed as CGRP-based molecular imaging probe (5)): Significant haemodynamic activation can be seen in the presence but not the absence of coadministered 1.15 ng μl^−1 CASP3

Compound: cfSGFP2-DDDDK-CGRP-G [Sensor (3), recombinant fusion of cysteine-free GFP, a short linker, enterokinase site and non-amidated CGRP]
- cleavage by EK light chain [6]: increasing cleavage with increasing concentrations

- cleavage by caspase-3 [4]: near-complete
Compound: cfSGFP2-DEVD-CGRP-G [Sensor (4), recombinant fusion of cysteine-free GFP, a short linker, caspase-3 site and non-amidated CGRP]

Compound: cfSGFP2-ENLYFQG-CGRP-G [Sensor (2), recombinant fusion of cysteine-free GFP, a short linker, TEV protease site and non-amidated CGRP]
- cleavage by TEV protease [7]: substantial but not complete cleavage
